{"source": "patent US8664269B2", "about": "“Nitroglycerin therapy for those unable to metabolize nitroglycerin” (Duke University, priority 2005, dated 2014)", "key": {"[1]": {"test_system": "patient with Type 1 diabetes on insulin regimen who develops angina", "assay": "Example III: GTN therapy of angina, Type 1 diabetes patient on insulin regimen", "type": "in vivo, human"}, "[2]": {"test_system": "alcoholic with restenosis and chest pain", "assay": "Example VI: restenosis and chest pain in an alcoholic", "type": "in vivo, human", "text": "A alcoholic has restenosis and chest pain."}, "[3]": {"test_system": "patient with congestive heart failure", "assay": "Example II: GTN therapy of congestive heart failure, patient", "type": "in vivo, human", "protocol": "A patient has congestive heart failure manifested by pulmonary congestion and low ventricular function. Treatment by infusion with GTN (100 mcg/min) has no effect. Infusion of GTN (100 mcg/min) is continued along with infusion of N-acetylcysteine at 50 mg/kg every 6 hours. After 10 minutes time, pulmonary congestion attenuates and ventricular function improves."}, "[4]": {"test_system": "patient with persistent angina", "assay": "Example I: GTN therapy of persistent angina, patient", "type": "in vivo, human", "protocol": "A patient has persistent angina. Treatment by infusion with GTN 100 mcg/min has no effect. Infusion of nitroglycerin 100 mcg/min is continued along with infusion of N-acetylcysteine at 50 mg/kg every six hours."}, "[5]": {"test_system": "alcoholic with chronic obstructive pulmonary disease", "assay": "Example VIII: obstructive lung disease in an alcoholic, shortness of breath", "type": "in vivo, human", "text": "A alcoholic with obstructive lung disease (chronic obstructive pulmonary disease) has shortness of breath."}, "[6]": {"test_system": "alcoholic patient who develops angina", "assay": "Example IV: GTN therapy of angina in an alcoholic", "type": "in vivo, human", "conditions": "for resolution of angina: 600 mg P.O. (TID) with sublingual GTN (0.4 mg)", "text": "A alcoholic needs to imbibe alcohol to avoid withdrawal symptoms. The patient develops angina. Sublingual GTN ([…]) has no effect."}, "[7]": {"test_system": "patient with heart attack (myocardial infarction)", "assay": "Example V: myocardial infarction, patient", "type": "in vivo, human", "conditions": "IV GTN alone", "text": "A patient has a heart attack (myocardial infarction)."}, "[8]": {"test_system": "person with high blood pressure", "assay": "Example VII: high blood pressure", "type": "in vivo, human", "conditions": "50 mg/min IV GTN alone; 200 mmHg systolic", "protocol": "A person has high blood pressure (200 mmHg systolic). […] Administration of Composition V (50 mg/ml and NAC 75 mg/ml) at 1 ml/min causes blood pressure to fall to 160 mmHg."}, "[9]": {"test_system": "patients receiving continuous GTN", "conditions": "intravenous NAC, short term studies; cited from earlier work"}, "Patient with asthma": {"test_system": "Patient with asthma", "assay": "Example IX: asthma, patient, shortness of breath", "type": "in vivo, human", "conditions": "nebulized combination of GTN (100 micromolar) and NAC (dose of I millimolar)", "text": "A patient with asthma experiences shortness of breath."}, "[10]": {"test_system": "Patient with interstitial lung disease (pulmonary fibrosis)", "assay": "Example X: interstitial lung disease (pulmonary fibrosis), patient", "type": "in vivo, human", "conditions": "nebulized GTN (10 micromolar) together with nebulized NAC (1 millimolar); patient on prednisone therapy", "text": "A patient with interstitial lung disease (pulmonary fibrosis) experiences shortness of breath despite being on prednisone therapy."}, "[11]": {"conditions": "infusion of GTN 100 mcg/min alone"}, "[12]": {"conditions": "infusion of N-acetylcysteine 50 mg/kg every 6 hours along with infusion of GTN 100 mcg/min"}, "[13]": {"conditions": "infusion of N-acetylcysteine 50 mg/kg every six hours along with infusion of nitroglycerin 100 mcg/min"}}}
{"smiles": "O=C1O[C@H]([C@@H](O)CO)C(O)=C1O", "note": "[Vitamin C, ascorbic acid]", "values": [{"measurement": "resolution of angina", "setting": "[1]; Vitamin C 10,000 mg/day P.O. along with sublingual GTN (0.4 mg)", "result": "causes the angina to resolve"}, {"measurement": "chest pain", "setting": "[2]; oral vitamin C (10,000 mg/day P.O.) supplementing sublingual GTN 0.5 mg", "result": "chest pain is relieved"}]}
{"smiles": "O=[N+]([O-])OCC(CO[N+](=O)[O-])O[N+](=O)[O-]", "note": "[GTN, nitroglycerin]", "values": [{"measurement": "effect on congestive heart failure (pulmonary congestion, low ventricular function)", "setting": "[3]; [11]", "result": "no effect"}, {"measurement": "effect on persistent angina", "setting": "[4]; [11]", "result": "no effect"}, {"measurement": "effect on angina", "setting": "[1]; sublingual GTN (0.4 mcg) alone", "result": "no effect"}, {"measurement": "shortness of breath", "setting": "[5]; nebulized GTN at a dose of 100 micromolar alone", "result": "does not cause improvement"}, {"measurement": "chest pain", "setting": "[2]; sublingual GTN 0.5 mg alone", "result": "does not relieve chest pain"}, {"measurement": "effect on angina", "setting": "[6]; sublingual GTN (0.4 mcg) alone", "result": "no effect"}, {"measurement": "response of myocardial infarction patient", "setting": "[7]", "result": "does not respond"}, {"measurement": "response of high blood pressure", "setting": "[8]", "result": "does not respond"}]}
{"smiles": "N[C@@H](CCC(=O)N[C@@H](CS)C(=O)NCC(=O)O)C(=O)O", "note": "[glutathione]", "values": [{"measurement": "chest pain", "setting": "[2]; glutathione 60 mg P.O. (T.I.D.) supplementing sublingual GTN 0.5 mg", "result": "chest pain is relieved"}, {"measurement": "resolution of angina", "setting": "[6]", "result": "resolution of the angina"}]}
{"smiles": "CC(=O)N[C@@H](CS)C(=O)O", "note": "[N-acetylcysteine]", "values": [{"measurement": "pulmonary congestion", "setting": "[3]; [12]", "result": "attenuates"}, {"measurement": "time until pulmonary congestion attenuates and ventricular function improves", "setting": "[3]; [12]", "result": 10, "unit": "min"}, {"measurement": "ventricular function", "setting": "[3]; [12]", "result": "improves"}, {"measurement": "GTN tolerance", "setting": "[9]", "result": "reverse GTN tolerance"}, {"measurement": "shortness of breath", "setting": "Patient with asthma", "result": "causes improvement"}, {"measurement": "resolution of angina", "setting": "[4]; [13]", "result": "the angina is resolved"}, {"measurement": "time until angina is resolved", "setting": "[4]; [13]", "result": 3, "unit": "min"}, {"measurement": "resolution of angina", "setting": "[1]; N-acetylcysteine 600 mg P.O. TID along with sublingual GTN (0.4 mg)", "result": "causes the angina to resolve"}, {"measurement": "shortness of breath", "setting": "[10]", "result": "causes improvement"}, {"measurement": "shortness of breath", "setting": "[5]; nebulized combination of GTN (100 micromolar) and NAC (1 millimolar)", "result": "causes improvement"}, {"measurement": "chest pain", "setting": "[2]; oral NAC (300 mg) supplementing sublingual GTN 0.5 mg", "result": "chest pain is relieved"}, {"measurement": "resolution of angina", "setting": "[6]", "result": "resolution of the angina"}]}
